Assay results as given in a melting point compilation (Tetko et al.; mined from patent text by program, amines drawn as free bases though some values may be those of a salt).

Structure (SMILES) | melting point [°C]
CC(C)(C)C(=O)C=C(c1ccccc1)n1cncn1 | 70 to 73
CCCc1[nH]cnc1C(=O)OCC | 175 to 179
CN1CCN(CNc2nc(OCc3ccc(F)cc3)ncc2F)CC1 | 125 to 126
O=C(/C=C/C=C(c1cccc(Cl)c1)c1cccc(Cl)c1)NCCCCc1cccnc1 | 100 to 102
CCCCCCCCCCCCCCOc1ccc(O)cc1 | 81 to 82
COc1ccc(-c2ccc(C(=O)Nc3cc4ncc(CN5CCCCCC5)cc4cc3C)cc2)cc1 | 161
CCc1nn2ccccc2c1NC(C)=O | 184 to 188
O=C(CCCCCNCc1cc2nc(-c3cccc4[nH]ncc34)nc(N3CCOCC3)c2s1)NO | 128 to 130
CCCc1c(C(=O)OCC)sc2[nH]c(=O)c(=O)[nH]c12 | 305 to 307
O=c1c2cc(F)c(N3CCCC3)nc2n(-c2ccccc2F)c(=O)n1O | > 250
O=C(C=Cc1ccco1)NCCCCCC(=O)NO | 151 to 152
CCCOc1c(C=O)c(=O)n(C)c(=O)n1C | 57 to 58
CNC(=O)C(Cc1ccc(OC)cc1)NC(=O)C(CC(C)C)C(CC(=O)O)SC(C)=O (centres undefined) | 92 to 95
COC(=O)c1ccccc1S(=O)(=O)Cc1c(O[C@H](Cn2ccnc2)c2ccccc2)ccc2c1CCCC2=O | 203 to 205
CCOC(=O)C(C(=O)OCC)C(=O)c1ccc(C(F)(F)F)cc1[N+](=O)[O-] | 59 to 60
O=C(O)c1cc(C(F)(F)F)cc([N+](=O)[O-])c1Cl | 173
CCOC(=O)c1cn(CC)c2ncncc2c1=O | 136
COc1cccc2c1C[C@H]1C[C@@H](CN3CCC(NC(=O)C(c4ccccc4)c4ccccc4)CC3)CN(C)[C@@H]1C2 | 219 to 222
N#CC1(NC(=O)c2ccccc2C(=O)O)CCCCC1 | 154 to 156
CCCC[C@@]1(O)CCC[C@@]2(C)CC[C@@H]3C[C@@]21OC3(C)C | 90 to 92
CCCCC1(CCCC)N[C@@H](c2nc(-c3ccccc3)c[nH]2)Cc2c1sc1ccccc21 | 198 to 200
O=C1N(N2CCOCC2)c2ccccc2C1(O)Cc1ccccn1 (centres undefined) | 168 to 170
CCCCn1c(=O)c2nn(S(=O)(=O)CCCCl)cc2n(CCCC)c1=O | 67 to 68
CCCCCC1=NN(C(=O)NC2C3CC4CC(C3)CC2C4)CC1c1ccccc1 (centres undefined) | 71
Cc1ccc(S(=O)(=O)N2CCN(S(=O)(=O)c3ccc(C)cc3)CC(=O)NCC(C3CCCCC3)NC(=O)CN(S(=O)(=O)c3ccc(C)cc3)CC2)cc1 (centres undefined) | 224

Structure (SMILES) | melting point [°C]
CCc1cc(O)c(C(C)=O)c(O)c1 | 121 to 123
CCCCCCCCCCCCCCCCCCNC(=O)OCC(CNS(=O)(=O)CCCCl)n1nnnc1C (centres undefined) | 74 to 77
NS(=O)(=O)c1cc(NC(=O)c2cnn3c(C(F)(F)F)cc(-c4ccc(Cl)cc4)nc23)c(Cl)s1 | 329
CCCc1c(OCCCCC(=O)O)ccc(C(C)=O)c1O | 97 to 102
CN(C(=O)c1ccc2c(c1)nc(NC(=O)c1cccs1)n2CCCC(=O)O)C1CCCCC1 | 256 to 258
CCCn1c(=O)c2c(NC)n[nH]c2n(Cc2ccncc2)c1=O | > 300
C[C@H](N)Cn1ncc2ccc3oc(C(=O)NCCCN4CCCC4=O)cc3c21 | 82
c1ccc(CN2CCN(CC3CCc4ccccc4O3)CC2)cc1 (centres undefined) | > 230
CCC(CC)C(NS(=O)(=O)c1ccc(Br)s1)c1ccnn1-c1ccccc1 (centres undefined) | 120 to 121
CCCCc1ccc2nnc(C(=O)O)cc2c1 | 131 to 133
CCCCc1nn(-c2cc(NC(=O)CC)ccc2Br)c(=O)n1Cc1ccc(-c2ccccc2S(=O)(=O)NC(=O)OC(C)(C)C)cc1F | 123 to 126
COC(=O)c1ccc(-c2nnc(-c3ccc(OC(F)(F)C(F)(F)F)cc3)o2)cc1 | 185 to 191
COc1cc(CCO[Si](C)(C)C(C)(C)C)c(C2=CC3CCC2N3C(=O)OC(C)(C)C)cn1 (centres undefined) | 75 to 76
CCOC(=O)c1cn(Cc2cnsn2)c2cc(F)c(F)cc2c1=O | 198 to 201
CCOc1ccc(C2C(C(=O)c3ccc(C(C)C)cc3)=C(O)C(=O)N2c2ccc(C)nn2)cc1 (centres undefined) | 279
C=CCNC(=O)ON=C1SCOC1C (centres undefined) | 66 to 67.5
CC1CCCN(c2cc3nc(C(C)(C)C)sc3cc2N=C=S)C1 (centres undefined) | 47 to 52
CCCn1c(=O)c2[nH]c(-c3cc(C)n(CC(=O)Nc4ccc(N(C)C)cc4)n3)nc2n(CCC)c1=O | > 300
O=[N+]([O-])c1cc(C(F)(F)F)c(Br)cc1-n1ccnc1 | 149 to 157
CS(=O)CCC(=N)NS(N)(=O)=O (centres undefined) | 141 to 144
CC(C)(C=C=CC(=O)O)c1ccc(Cl)cc1 | 64 to 67
CON(C)C(=O)COc1nnc(-c2ccc3c(c2)CCO3)o1 | 139 to 140
O=[N+]([O-])c1ccc(C(Cl)=NNc2ccccc2)cc1 | 157 to 158
CS(=O)(=O)c1ccc(-c2nc(C(F)(F)F)nn2-c2ccc(O)cc2)cc1 | 246
OCC1OC(n2cnc3c(NNC4COc5c(Cl)cccc5C4)ncnc32)C(O)C1O (centres undefined) | 137 to 139

Next, values leading:

melting point [°C] | Structure (SMILES)
195 to 197 | CN(C)CCNC(=O)Cn1c(-c2ccc(Br)cc2)nc2cccnc21
96 to 98 | Nc1nc(F)cc(OCc2ccccc2)n1
210 to 211 | COCCc1nc2c(N)nc3cc(-c4cncc(CO)c4)ccc3c2n1CC(C)(C)O
112 to 117 | CC(C)C1(C)NC(c2ccc3ccccc3n2)=NC1=O (centres undefined)
157 | CC(Cc1ccc(Cl)cc1Cl)NC(=O)c1cn(C)nc1C(F)F (centres undefined)
202 to 208 | COc1ccc(-c2c(C)ccn2N2C(=O)c3ccccc3C2=O)c(Cl)c1
151 to 153 | CN1CCN(C2=Nc3cc(F)ccc3N3CCc4cccc2c43)CC1
124 to 125 | Cc1cc(C)cc(Sc2cccc(N)c2C#N)c1
184 to 186 | Cc1nc2cccc(OC3CCN(C(=O)C(C)C)CC3)c2c(N)c1C(=O)O
151 | O=c1c2ccccc2sc2cc(OCC(O)CCl)cc(O)c12 (centres undefined)
199 to 200 | Cc1cc(-c2nc3cccnn3c2-c2ccnc(NC(=O)c3ccoc3)c2)ccc1F
220 to 222 | CC(C)(Cc1ccccc1)C(NC(=O)c1cccnc1)Nc1c(Nc2cccnc2)c(=O)c1=O (centres undefined)
175 to 176 | Nc1ccc(-c2cccc([N+](=O)[O-])c2)cc1O
220 to 222 | COc1cccc2c1CCC1=C2CC(=O)N1
151 to 153 | COc1cc2ccc(-c3cc(OCc4ccccc4)c(OC)cc3[N+](=O)[O-])cc2cc1OC
226 to 228 | Cc1cc(Cl)nn2c(-c3ccnc4[nH]ccc34)c(-c3ccc(F)cc3)nc12
86 to 89 | COC(=O)C(OCc1csc(-c2ccc(F)cc2)n1)C(=O)c1ccccc1 (centres undefined)
187 to 189 | CCCC(=O)c1cnc2c(OC)cccc2c1Nc1ccc(CO)cc1
146 to 147 | Nc1ccc(S(=O)c2ccccc2)cc1[N+](=O)[O-] (centres undefined)
169 to 170 | O=c1c(CCCCc2ccncc2)cc2cccnc2n1-c1cccc([N+](=O)[O-])c1
98 to 101 | O=C(O)CCc1cc(OCc2ccccc2)nn1Cc1ccc(Cl)cc1Cl
158 to 159 | Cc1c(C)c2c(c(C)c1O)CCC(COc1ccc(CC3SC(=O)NC3=O)cc1)O2 (centres undefined)
205 to 206 | Cc1ccc(C(=O)NC(NC(=S)Nc2cccc(F)c2)C(F)(F)F)cc1 (centres undefined)
162 to 163 | CCOC(=O)c1cc2cc(OCCCS(C)(=O)=O)cc([N+](=O)[O-])c2[nH]1
178 | Cc1cc(N2CCN(C)CC2)n2nc(OCCO)c(S(=O)(=O)c3ccccc3)c2n1

melting point [°C] | Structure (SMILES)
81 to 85 | COc1cc(N)cc(C#N)c1
107 to 110 | COCc1nccc(SCCCSc2ccc3ncc([N+](=O)[O-])n3n2)c1C
88 | COc1ccc(SC(C)(Cc2ccccc2)C(=O)NO)cc1 (centres undefined)
256 to 258 | Nc1ccc(-c2cc3[nH]c4ccc(O)cc4c3c3c2C(=O)NC3=O)cc1
158 to 160 | COc1ccc2c(n1)C1(CO2)C(=O)N(Cc2cnc(C(C)C)s2)c2cccc(Br)c21 (centres undefined)
183 to 185 | COc1ccc(C2CCN(c3c(C)c(C)c4c(c3C)[C@@H](c3ccc(C)cc3)C(C)(C)O4)CC2)cc1
243 to 245 | Cc1cc(C)n(Cc2ccccc2Cl)c(=O)c1C#N
176 to 178 | Cc1ccc(NC(=O)CN2CCNCC2)cc1Nc1ncc(-c2cccnc2)o1
79 to 80 | Cc1cc(SCc2cc(-c3ccc(Cl)cc3)on2)ccc1OCC(=O)O
218 to 219 | Cc1cc(-c2nc3c(C)cc(Cl)nn3c2-c2ccnc(N)c2)ccc1F
82 to 86 | Cc1ccc(S(=O)(=O)NC[C@H](C)N)cc1
160 to 162 | Cc1cccc(-c2nc(-c3ccc(F)cc3)sc2-c2ccnc(N)c2)c1
120 | CCOC(=O)c1cc(OCc2ccccc2)c2nc(C3CC3)n(C)c2c1
220 to 221 | Cn1nnnc1-c1cn(C)c2cc(C(F)(F)F)ccc2c1=O
167 to 168 | COC(=O)c1ccc(-c2nc(-c3ccccc3)n(C)n2)cc1
91 | Cc1cccc2c1Oc1ccccc1N2
236 | CCOC(=O)c1nc2scc(CNC(=O)c3ccc(C(=O)OC)cc3)c2c(=O)[nH]1
186 to 188 | CCCC(=O)c1cnc2c(OC)cccc2c1Nc1cccc(CO)c1C
230 to 232 | Cc1ccc(-c2cc(N3CCC(C(N)=O)CC3)c3ccccc3n2)cc1
226 to 228 | COC(=O)c1cn(-c2ccc(O)cc2C)c(C2CCNCC2)cc1=O
168 to 170 | CCCCCOc1cc(C(=O)O)cc(N)c1C(=O)c1ccccc1
166 to 169 | COc1c(Cl)ccc(-c2cc(N)c(Cl)c(C(=O)NOCc3ccccc3)n2)c1F
75 to 78 | BrCc1cc2ccc3ccccc3c2s1
213 to 215 | Nc1ccc(CO)c(Nc2nccc(-c3cccnc3)n2)c1
